Results on two compounds are retold here after ChEMBL document CHEMBL1142969, “Venturamides A and B: antimalarial constituents of the panamanian marine Cyanobacterium Oscillatoria sp” (J Nat Prod, 2007).

For one test, the system named is Plasmodium falciparum. The test is described as follows: Antiplasmodial activity against chloroquine-resistant Plasmodium falciparum W2 Indochina. The test is classed as functional, organism-based.
The subject of a further test is MCF7. The experiment in a line: Growth inhibition of MCF7 cells. The test is classed as functional, cell-based. Conditions: Homo sapiens.
In the next test the test system is Leishmania donovani. The test is described as follows: Growth inhibition of Leishmania donovani MHOM/SD/00-1S after 72 hrs by amastigote assay. The class given is functional, organism-based.
The next test deals with Vero. The experiment in a line: Cytotoxicity against Vero cells after 72 hrs. The class given is cell-based. Conditions: Chlorocebus sabaeus.
The next test deals with Trypanosoma cruzi. The experiment in a line: Growth inhibition of Trypanosoma cruzi recombinant Tulahuen C4. The class given is functional, organism-based.

pIC50: −log10 of the molar value.

For orientation: pIC50 means −log10 of the IC50, conventionally taken in molar units. For the compound `Cc1oc2nc1C(=O)N[C@H](C)c1nc(cs1)C(=O)N[C@H](C(C)C)c1nc(cs1)C(=O)N[C@@H]2C` [VENTURAMIDE A], the pIC50 was 5.09 in the test on Plasmodium falciparum; 4.88 in the test on MCF7; less than 4.70 in the test with Leishmania donovani; 4.07 in the test with Vero; 4.84 in the test with Trypanosoma cruzi.
Consider `Cc1oc2nc1C(=O)N[C@H]([C@@H](C)O)c1nc(cs1)C(=O)N[C@H](C(C)C)c1nc(cs1)C(=O)N[C@@H]2C` [VENTURAMIDE B], for which the pIC50 was 5.28 in the test on Plasmodium falciparum; less than 4.27 with MCF7; less than 4.72 with Leishmania donovani; 4.25 with Vero; 4.80 in the test on Trypanosoma cruzi.
